Converted amounts (≈) assume the structure as drawn. Like-named read-outs stand apart in the source and are kept apart here.
Assays:
[1] = Cytotoxicity (CCK-8 cell viability) and selectivity index; assay type: cell-based, human; settings: human, HepDE19 cells; cytotoxicity, concentration resulting in death of 50% of host cells
Excerpt: (§1) HepG2.2.15 and HepDE19 are stably-transfected cell lines containing the HBV genome. Both cell lines are derived from the hepatoblastoma cell line Hep G2 (American Type Culture Collection, ATCC® HB-8065™) by the published procedures described in references: M A Selles et al. Proc. Natl. Acad. Sci. USA 1987, 84, 1005-1009 and H Guo et al. Journal of Virology 2007, 81, 12472-12484, respectively. Both cell lines were maintained in Dulbecco's modified Eagle's medium (DMEM)-F12 medium supplemented with 10% fetal bovine serum, 100 U/mL penicillin, 100 μg/mL streptomycin, and 0.5 mg/mL of G418.
(§2) In a cell culture model, apparent antiviral activity of a compound can be the result of host cell death after exposure to the compound. To determine whether the anti-HBV effect of a test compound is due to cytotoxicity, HepDE19 cells were seeded into 96-well plates (5×10^3 cells per well) and treated with compounds as described above for EC50 determination. Five days after treatment, cell viability was measured by addition of 20 μL of CCK-8 reagent. Two hours after incubation at 37° C., the absorbance at wavelengths of 450 nm and 630 nm (OD450 and OD630) was recorded by a plate reader. The concentration results in the death of 50% of the host cells (CC50) of each compound was determined (See Table 5).

HepDE19 cells = test: as above; assay type: cell-based, human; settings: for Selectivity index (CC50/EC50): CC50 value/EC50 value; for CC50: cytotoxicity, concentration resulting in death of 50% of host cells
Excerpt: as §1, §2

[2] = tested on: HBV replication in HepG2.2.15 cells; test: Anti-HBV activity in vitro in HepG2.2.15 cells (extracellular HBV DNA by qPCR); assay type: cell-based; settings: read-out: EC50
Procedure, shortened: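 EC50 is derived from qPCR of extracellular viral DNA in culture supernatant after 5-day compound exposure. Cells (HepG2.2.15, stably carrying the HBV genome) were plated and incubated overnight at 37 °C before half-log dilution series were added at 0.5% final DMSO.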

[3] = Human microsomal clearance assay; assay type: in vitro ADME
Procedure, shortened: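 Liver microsomes (0.5 mg/mL protein) were incubated with 1 μM compound at 37 °C, pH 7.4 phosphate, with an NADPH-regenerating system. Samples at 0-30 min were quenched and measured by LC-MS/MS for parent loss. No-NADPH controls were included.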

[4] = Lyophilisation solubility assay (Lysa); assay type: physicochemical; settings: for solubility thermodynamic: thermodynamic from solid
Method: The aqueous solubility is an important physico-chemical property that plays a significant role in various physical and biological processes. It is desirable to have good solubility which enables good permeability and gastric and intestinal absorption, linear dose proportionality, less PK variability, and easy formulation for PD/PK studies. […] Lyophilisation solubility assay (Lysa) is a well adopted high throughput assay to measure compound solubility in industry.
Samples are prepared in duplicate from 10 mM DMSO stock solutions. After evaporation of DMSO with a centrifugal vacuum evaporator, the residue is solved in 0.05 M phosphate buffer (pH 6.5), stirred for one hour and then shook for two hours. After one night, the solution is filtered using a microtiter filter plate and then the filtrate and its 1/10 dilution are then analyzed by direct UV measurement or by HPLC-UV. In addition a four-point calibration curve is prepared from the 10 mM stock solutions and used for the solubility determination of the compounds. The results are in μg/ml. In case the percentage of sample measured in solution after evaporation divided by the calculated maximum of sample amount is bigger than 80% the solubility is reported as bigger than this value.

[5] = Hepatitis B virus, HepG2.2.15, Anti-HBV activity in HepG2.2.15 cells
[6] = Anti-HBV activity in HepG2.2.15 cells

Compound | EC50 [2, 5] [nM] | solubility thermodynamic ([4]; pH 6.5, aqueous buffer) [µg/mL] | CLh ([3]; human, 1 μM, pH 7.4) [mL/min/kg] | other results
CCOC(=O)C1=C(CN2[C@@H]3COC[C@H]2C[C@@H](NC(C)=O)C3)NC(c2nccs2)=N[C@H]1c1ccc(F)cc1Br [Example 70, Ethyl (4R)-6-[[(1S,5R)-7-endo-acetamido-3-oxa-9-azabicyclo[3.3.1]nonan-9-yl]methyl]-4-(2-bromo-4-fluoro-phenyl)-2-thiazol-2-yl-1,4-dihydropyrimidine-5-carboxylate] | 8.2 |  |  | CC50 at 5 days [1]: 60 µM; Selectivity index (CC50/EC50) (HepDE19 cells): 7268
COC(=O)C1=C(CN2C3CC(F)(F)C2C[C@H]3C(=O)O)NC(c2nccs2)=N[C@H]1c1ccc(F)cc1Cl (stereo partly drawn) [Example 152, (5R)-7-[[(4R)-4-(2-chloro-4-fluoro-phenyl)-5-methoxycarbonyl-2-thiazol-2-yl-1,4-dihydropyrimidin-6-yl]methyl]-2,2-difluoro-7-azabicyclo[2.2.1]heptane-5-carboxylic acid] | 17.7 |  |  | CC50 at 5 days [1]: > 100 µM; Selectivity index (CC50/EC50) (HepDE19 cells): >5650
CCOC(=O)C1=C(CN2[C@@H]3COC[C@H]2C[C@H](NC(C)=O)C3)NC(c2nccs2)=N[C@H]1c1ccc(F)cc1Br [Example 71, Ethyl (4R)-6-[[(1S,5R)-7-exo-acetamido-3-oxa-9-azabicyclo[3.3.1]nonan-9-yl]methyl]-4-(2-bromo-4-fluoro-phenyl)-2-thiazol-2-yl-1,4-dihydropyrimidine-5-carboxylate] | 3 |  |  | CC50 at 5 days [1]: 44 µM; Selectivity index (CC50/EC50) (HepDE19 cells): 14690
COC(=O)CC1CC2COCC(C1)N2CC1=C(C(=O)OC)[C@H](c2ccc(F)cc2Cl)N=C(c2nccs2)N1 (stereo partly drawn) [Example 25, (R)-4-(2-Chloro-4-fluoro-phenyl)-6-(7-methoxycarbonylmethyl-3-oxa-9-aza-bicyclo[3.3.1]non-9-ylmethyl)-2-thiazol-2-yl-1,4-dihydro-pyrimidine-5-carboxylic acid methyl ester] | 14.5 |  |  | CC50 at 5 days [1]: > 100 µM; Selectivity index (CC50/EC50) (HepDE19 cells): >6897
COC(=O)C1=C(CN2[C@@H]3C[C@@H](CC(=O)O)C[C@H]2C(F)(F)C3)NC(c2nccs2)=N[C@H]1c1ccc(Cl)c(F)c1 (single isomer, unassigned) [Example 113, 2-[(1R,3R,5S)-8-[[(4S)-4-(4-chloro-3-fluoro-phenyl)-5-methoxycarbonyl-2-thiazol-2-yl-1,4-dihydropyrimidin-6-yl]methyl]-6,6-difluoro-8-azabicyclo[3.2.1]octan-3-yl]acetic acid or 2-[(1S,3S,5R)-8-[[(4S)-4-(4-chloro-3-fluoro-phenyl)-5-methoxycarbonyl-2-thiazol-2-yl-1,4-dihydropyrimidin-6-yl]methyl]-6,6-difluoro-8-azabicyclo[3.2.1]octan-3-yl]acetic acid] |  |  |  | CC50 (HepDE19 cells): 58 µM; EC50 [2, 6]: 9.1 nM; CLh ([3]; human microsomal clearance): 6.2 mL/min/kg
COC(=O)C1=C(CN2CC3(F)CC2(C(=O)O)C3)NC(c2nccs2)=N[C@H]1c1ccc(F)cc1Cl [Example 40, 2-[(R)-6-(2-Chloro-4-fluoro-phenyl)-5-methoxycarbonyl-2-thiazol-2-yl-3,6-dihydro-pyrimidin-4-ylmethyl]-4-fluoro-2-aza-bicyclo[2.1.1]hexane-1-carboxylic acid] | 32 |  |  | solubility thermodynamic ([4]; aqueous buffer, 0.05 M phosphate buffer (pH 6.5), reported as bigger than the value if more than 80% of the sample is in solution, read-out: Lysa): > 634 µg/mL; CLh ([3]; human microsomal clearance): 1.4 mL/min/kg
COC(=O)C1=C(CN2[C@H]3COC[C@@H]2C(F)(F)[C@H](CC(=O)O)C3)NC(c2nccs2)=N[C@H]1c1ccc(F)c(F)c1Cl (single isomer, unassigned) [Example 131, 2-[(1R,5R,7S)-9-[[(4R)-4-(2-chloro-3,4-difluoro-phenyl)-5-methoxycarbonyl-2-thiazol-2-yl-1,4-dihydropyrimidin-6-yl]methyl]-6,6-difluoro-3-oxa-9-azabicyclo[3.3.1]nonan-7-yl]acetic acid or 2-[(1S,5S,7R)-9-[[(4R)-4-(2-chloro-3,4-difluoro-phenyl)-5-methoxycarbonyl-2-thiazol-2-yl-1,4-dihydropyrimidin-6-yl]methyl]-6,6-difluoro-3-oxa-9-azabicyclo[3.3.1]nonan-7-yl]acetic acid] |  |  |  | CC50 (HepDE19 cells): 53 µM; Lysa ([4]; 0.05 M phosphate buffer (pH 6.5), reported as bigger than the value if more than 80% of the sample is in solution): 261 µg/mL; EC50 [2, 6]: 5.7 nM; CLh ([3]; human microsomal clearance): 0 mL/min/kg
CCOC(=O)C1=C(CN2[C@H]3COC[C@@H]2[C@@H](F)[C@H](CC(=O)O)C3)NC(c2nccs2)=N[C@H]1c1ccccc1Cl [Example 103, 2-[(1R,5R,6S,7S)-9-[[(4R)-4-(2-chlorophenyl)-5-ethoxycarbonyl-2-thiazol-2-yl-1,4-dihydropyrimidin-6-yl]methyl]-6-fluoro-3-oxa-9-azabicyclo[3.3.1]nonan-7-yl]acetic acid] | 274 | 345 (≈ 613 µM) | 0 | 
COC(=O)C1=C(CN2[C@@H]3COC[C@H]2CN(C(=O)C(C)(C)C(=O)O)C3)NC(c2nccs2)=N[C@H]1c1ccc(F)cc1Cl [Example 79, 3-[(1S,5R)-9-[[(4R)-4-(2-chloro-4-fluoro-phenyl)-5-methoxycarbonyl-2-thiazol-2-yl-1,4-dihydropyrimidin-6-yl]methyl]-3-oxa-7,9-diazabicyclo[3.3.1]nonan-7-yl]-2,2-dimethyl-3-oxo-propanoic acid] | 293 | > 745 | 3.5 | 
COC(=O)C1=C(CN2[C@@H]3CC[C@@]2(C(=O)O)CC3(F)F)NC(c2nccs2)=N[C@H]1c1ccc(F)cc1Cl [Example 149, (1R,4S)-7-[[(4R)-4-(2-chloro-4-fluoro-phenyl)-5-methoxycarbonyl-2-thiazol-2-yl-1,4-dihydropyrimidin-6-yl]methyl]-2,2-difluoro-7-azabicyclo[2.2.1]heptane-4-carboxylic acid] | 4 | > 665 | 3.4 | 
COC(=O)C1=C(CN2[C@@H]3C[C@H](CC(=O)O)C[C@H]2C(F)(F)C3)NC(c2nccs2)=N[C@H]1c1ccc(F)cc1Cl [Example 86, 2-[(1R,3S,5S)-8-[[(4R)-4-(2-chloro-4-fluoro-phenyl)-5-methoxycarbonyl-2-thiazol-2-yl-1,4-dihydropyrimidin-6-yl]methyl]-6,6-difluoro-8-azabicyclo[3.2.1]octan-3-yl]acetic acid] | 2 | 149 (≈ 262 µM) | 0 | 
COC(=O)C1=C(CN2C3COCC2CC(C(=O)O)C3)NC(c2nc(C)cs2)=N[C@H]1c1ccc(F)cc1Cl (stereo partly drawn) [Example 2, 9-[(R)-6-(2-Chloro-4-fluoro-phenyl)-5-methoxycarbonyl-2-(4-methyl-thiazol-2-yl)-3,6-dihydro-pyrimidin-4-ylmethyl]-3-oxa-9-aza-bicyclo[3.3.1]nonane-7-carboxylic acid] | 114 | 450 (≈ 820 µM) | 3.2 | 
COC(=O)C1=C(CN2C3COCC2CC(C(=O)O)C3)NC(c2nccs2)=N[C@H]1c1ccc(F)cc1Br (stereo partly drawn) [Example 5, 9-[(R)-6-(2-Bromo-4-fluoro-phenyl)-5-methoxycarbonyl-2-thiazol-2-yl-3,6-dihydro-pyrimidin-4-ylmethyl]-3-oxa-9-aza-bicyclo[3.3.1]nonane-7-carboxylic acid] | 21 | > 660 | 0 | 
CCOC(=O)C1=C(CN2[C@@H]3COC[C@H]2C[C@H](CC(=O)O)C3)NC(c2nccs2)=N[C@H]1c1cccc(F)c1F [Example 75, Exo-2-[(1S,5R)-9-[[(4R)-4-(2,3-difluorophenyl)-5-ethoxycarbonyl-2-thiazol-2-yl-1,4-dihydropyrimidin-6-yl]methyl]-3-oxa-9-azabicyclo[3.3.1]nonan-7-yl]acetic acid] | 29.1 | > 656 | 1.0 | 

From US9266904B2, “6-bridged heteroaryldihydropyrimidines for the treatment and prophylaxis of hepatitis B virus infection” (priority 2013, dated 2016)
